Experimental data as given in patent publication US10940139B2, “Compounds that interact with the Ras superfamily for the treatment of cancers, inflammatory diseases, rasopathies, and fibrotic disease” (Shy Therapeutics LLC, priority 2017, dated 2021).

What was measured:
[1] = target: KRas G12D/Q61H double mutant (Homo sapiens (Human), UniProt P01116, G12D/Q61H); experiment: Ras GTP binding domain inhibition assay (labeled GTP); conditions: at 20 μM; read-out: KRas G12D Q61H % Inh.
How it was run: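 His-tagged KRas protein (3-10 μg/ml) was captured overnight at 4° C on nickel-coated wells in 50 mM Tris pH 7.5, 1 mM MgCl2, 1 mM DTT. Bound labeled GTP was read by fluorescence after washing.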

[2] = target: Rho-A (Homo sapiens (Human), UniProt P61586); experiment: Rho inhibition assay (labeled GTP); type: binding; conditions: read-out: Rho-A % Inh.
[3] = target: Rac-1 (Homo sapiens (Human), UniProt P63000); experiment: Rac inhibition assay (labeled GTP); type: binding; conditions: read-out: Rac-1 % Inh.
[4] = test system: MAPK phosphorylation in PANC-1 pancreatic cancer cell line; experiment: MAPK cell-based phosphorylation assay (cell-direct ELISA, EGF stimulation); conditions: Homo sapiens, * = tested at 10 μM
How it was run: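 Cell-direct ELISA measured phospho-MAPK, with fluorescence read at 595 nm from AmpliFlu Red. Before fixation, PANC-1 cells starved overnight received 6 hours of compound (30 μM single dose or serial dilutions, 0.3% DMSO, 37° C), followed by 1.5 ng/ml EGF for 15 min.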

[5] = target: KRas G12D mutant protein (Homo sapiens (Human), UniProt P01116, G12D); experiment: Ras GTP binding domain inhibition assay (labeled GTP); conditions: at 20 μM; read-out: KRas G12D % Inh.
Description: The following method was developed as specific assay for KRas G12D mutant protein.
Buffer-I: • 50 mM Tris, pH 7.5 • 150 mM NaCl (optional) • 1 mM MgCl2 • 1 mM DTT. • KRas G12D mutant protein was expressed as a His-tagged protein. Purified His-KRas G12D protein was diluted in buffer-I to a final concentration of 3-10 μg/ml. • 200 μl of the diluted His-KRas G12D protein was added to a nickel coated 96 well plate and incubated overnight at 4° C. • The next day, wells were washed 3× in 200 μl of Buffer-I. • Then 200 μl of Buffer-I were added to each well in the presence of 1% DMSO. • Tested compounds were added to the protein-coated wells at a concentration of 20 μM, and incubated for 3 hours at room temperature. While performing IC50 measurements a serial dilution of all tested concentrations was prepared.
Then 22 μl of Cy3-GTP or Cy5-GTP was added to each well. The labeled GTP was incubated for 45 min. at room temperature. • Following GTP incubation, wells were washed 3× in Buffer-I, and 200 μl of Buffer-I were added to each well. • Following washes, the amount of bound labeled-GTP was measured with an Eppendorf AF2200 plate reader.

Sequence of Rho-A (P61586 whole entry): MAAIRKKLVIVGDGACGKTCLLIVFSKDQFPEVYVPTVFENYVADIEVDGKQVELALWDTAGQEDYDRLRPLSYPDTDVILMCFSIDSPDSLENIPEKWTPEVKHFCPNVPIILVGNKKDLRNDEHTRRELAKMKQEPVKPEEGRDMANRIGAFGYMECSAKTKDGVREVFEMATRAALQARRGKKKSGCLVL
Sequence of KRas G12D mutant protein (P01116-2 other isoform, or with tags, fused parts or gaps G12D): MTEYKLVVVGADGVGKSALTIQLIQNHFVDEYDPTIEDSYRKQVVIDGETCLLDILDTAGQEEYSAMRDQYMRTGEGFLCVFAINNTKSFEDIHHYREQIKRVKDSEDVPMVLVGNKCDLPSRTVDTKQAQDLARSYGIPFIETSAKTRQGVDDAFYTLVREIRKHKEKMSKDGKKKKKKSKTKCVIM
Sequence of KRas G12D/Q61H double mutant (P01116-2 other isoform, or with tags, fused parts or gaps G12D/Q61H): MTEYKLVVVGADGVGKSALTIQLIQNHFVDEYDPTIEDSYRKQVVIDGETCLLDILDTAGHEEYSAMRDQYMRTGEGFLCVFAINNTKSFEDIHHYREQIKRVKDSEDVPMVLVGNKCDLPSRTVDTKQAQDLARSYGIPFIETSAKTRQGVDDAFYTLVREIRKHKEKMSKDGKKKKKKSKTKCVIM

inhibition at 20 µM [1] [%]	inhibition at 20 µM [2] [%]	inhibition at 20 µM [3] [%]	SMILES	inhibition at 10 µM [4] [%]	inhibition at 20 µM [5] [%]
0	25 to 50	51 to 75	COc1ccnc(-c2nc(O)c3c(CN)csc3n2)c1	–	–
–	–	–	COc1ccc(-c2c(-c3ccccc3)sc3c(O)nc(-c4nccn4C)nc23)cn1 [drawing 1353]	51 to 75	–
–	–	–	Cc1sc2c(O)nc(-c3nccn3C)nc2c1-c1ccccc1 [drawing 1354]	0	–
–	–	–	Cn1ccnc1-c1nc(O)c2sc(-c3ccccc3)c(-c3ccccc3Cl)c2n1 [drawing 1355]	51 to 75	–
–	–	–	COCCNc1nc(-c2nccn2C)nc2sc(-c3ccccc3)c(-c3ccncc3)c12 [drawing 1356]	25 to 50	–
–	–	–	COCCNc1nc(-c2nccn2C)nc2sc(-c3ccc(OC)cc3)c(-c3ccccc3)c12 [drawing 1357]	51 to 75	–
–	–	–	Cn1ccnc1-c1nc(O)c2scc(-c3cccc(C(F)(F)F)c3)c2n1 [drawing 1358]	25 to 50	–
–	–	–	Cc1sc2c(O)nc(-c3nccn3C)nc2c1-c1cccc(C(F)(F)F)c1 [drawing 1359]	1 to 25	–
–	–	–	Cc1sc2c(O)nc(-c3nccn3C)nc2c1-c1ccc(OCC(C)C)nc1 [drawing 1360]	25 to 50	–
–	–	–	COc1ccc(-c2c(C)sc3c(O)nc(-c4nccn4C)nc23)cn1 [drawing 1361]	25 to 50	–
–	–	–	Cc1sc2c(O)nc(-c3nccn3C)nc2c1-c1ccccc1Cl [drawing 1362]	1 to 25	–
–	–	–	Cn1cnc(-c2nc(O)c3scc(-c4cccc(C(F)(F)F)c4)c3n2)c1 [drawing 1364]	1 to 25	–
–	–	–	CC(C)COc1ccc(-c2csc3c(O)nc(-c4cn(C)cn4)nc23)cn1 [drawing 1365]	1 to 25	–
–	–	–	Cn1cnc(-c2nc(O)c3scc(-c4cccc(OC(F)(F)F)c4)c3n2)c1 [drawing 1366]	1 to 25	–
–	–	–	Oc1nc(-c2ccncn2)nc2c(-c3cccc(C(F)(F)F)c3)csc12 [drawing 1367]	1 to 25	–
–	–	–	Oc1nc(-c2ncccn2)nc2c(-c3cccc(C(F)(F)F)c3)csc12 [drawing 1368]	1 to 25	–
–	–	–	CC(C)Oc1ccc(-c2csc3c(O)nc(-c4nccn4C)nc23)cc1F [drawing 1369]	25 to 50	–
–	–	–	Cc1sc2c(O)nc(-c3nccn3C)nc2c1-c1ccc(OC(C)C)c(F)c1 [drawing 1370]	25 to 50	–
–	–	–	CC(C)Oc1ccc(-c2c(-c3ccccc3)sc3c(O)nc(-c4nccn4C)nc23)cc1F [drawing 1371]	25 to 50	–
–	–	–	CC(C)COc1ccc(-c2csc3c(O)nc(-c4nccn4C)nc23)cn1 [drawing 1372]	25 to 50	–
–	–	–	COc1ccc(-c2csc3c(O)nc(-c4nccn4C)nc23)cn1 [drawing 1373]	51 to 75	–
–	–	–	Cn1ccnc1-c1nc(O)c2scc(-c3ccccc3)c2n1 [drawing 1374]	76 to 100	–

inhibition at 20 µM [1] [%]	inhibition at 20 µM [2] [%]	inhibition at 20 µM [3] [%]	SMILES	inhibition at 10 µM [4] [%]	inhibition at 20 µM [5] [%]
–	–	–	Cn1ccnc1-c1nc(O)c2scc(-c3ccccc3Cl)c2n1 [drawing 1375]	25 to 50	–
–	–	–	Cn1ccnc1-c1nc(O)c2scc(-c3ccc(F)cc3F)c2n1 [drawing 1376]	0	–
–	–	–	Cn1ccnc1-c1nc(O)c2scc(-c3cccc(Cl)c3)c2n1 [drawing 1377]	25 to 50	–
–	–	–	COC(C)(C)c1ccc(-c2csc3c(O)nc(-c4nccn4C)nc23)cc1 [drawing 1378]	25 to 50	–
–	–	–	Cn1ccnc1-c1nc(O)c2scc(-c3ccc(C(C)(C)C)cc3)c2n1 [drawing 1379]	25 to 50	–
–	–	–	COCCNc1nc(-c2ccccn2)nc2sc(-c3ccccc3)c(-c3ccccn3)c12 [drawing 1380]	0	–
–	–	–	Cc1sc2c(O)nc(-c3nccn3C)nc2c1-c1ccc(F)cc1F [drawing 1381]	0	–
–	–	–	COCCNc1nc(-c2nccn2C)nc2sc(-c3ccccc3)c(-c3ccccn3)c12 [drawing 1382]	51 to 75	–
25 to 50	51 to 75	51 to 75	Oc1nc(-c2ccccn2)nc2c(-c3ccccc3)csc12 [drawing 3625]	–	–
25 to 50	76 to 100	76 to 100	Cc1ccccc1N1CCN(C(=O)c2csc3c(O)nc(-c4ccccn4)nc23)CC1 [drawing 3628]	–	–
25 to 50	1 to 25	25 to 50	O=C(c1csc2c(O)nc(-c3ccccn3)nc12)N1CCOC(c2cccc(F)c2)C1 (centres unmarked) [drawing 3630]	–	–
25 to 50	25 to 50	25 to 50	COc1ccnc(-c2nc(O)c3c(Br)csc3n2)c1 [drawing 3632]	–	–
1 to 25	51 to 75	51 to 75	O=C(NCCc1cccnc1)c1csc2nc(-c3ccccn3)nc(N3CCOCC3)c12 [drawing 3633]	–	–
25 to 50	51 to 75	51 to 75	COc1ccc(CCNC(=O)c2csc3nc(-c4ccccn4)nc(N4CCOCC4)c23)cn1 [drawing 3634]	–	–
0	25 to 50	25 to 50	COc1ccc(CCN(C)C(=O)c2csc3nc(-c4ccccn4)nc(N4CCOCC4)c23)cn1 [drawing 3635]	–	–
1 to 25	25 to 50	51 to 75	COc1cc(CCNC(=O)c2csc3nc(-c4ccccn4)nc(N4CCOCC4)c23)ccn1 [drawing 3636]	–	–
51 to 75	76 to 100	–	O=C(c1csc2c(O)nc(-c3ccccn3)nc12)N1CCNC(c2cn[nH]c2)C1 (centres unmarked) [drawing 3730]	–	25 to 50
51 to 75	51 to 75	–	CC(C)COc1ccc(-c2csc3c(O)nc(-c4ccccn4)nc23)cn1 [drawing 3749]	–	51 to 75
51 to 75	–	–	Oc1nc(-c2ccccn2)nc2c(-c3ccccc3C(F)F)csc12 [drawing 3755]	–	51 to 75
51 to 75	–	51 to 75	COc1cc(-c2csc3c(O)nc(-c4ccccn4)nc23)cnc1C(F)(F)F [drawing 3756]	–	51 to 75
76 to 100	–	–	CN(C)CCOc1cccc(-c2csc3c(O)nc(-c4ccccn4)nc23)c1 [drawing 3811]	–	76 to 100
51 to 75	–	–	Cc1sc2c(O)nc(-c3ccccn3)nc2c1C(=O)N1CCN(Cc2cccc(O)c2)CC1 [drawing 3829]	–	25 to 50

SMILES	inhibition at 20 µM [1] [%]	inhibition at 20 µM [2] [%]	inhibition at 20 µM [3] [%]	inhibition at 10 µM [4] [%]	inhibition at 20 µM [5] [%]
O=C(c1csc2c(O)nc(-c3ccccn3)nc12)N1CCN(Cc2cccc(O)c2)CC1 [drawing 3629]	76 to 100	76 to 100	76 to 100	–	–
O=C(c1csc2c(O)nc(-c3ccccn3)nc12)N1CCOC(c2nccs2)C1 (centres unmarked) [drawing 3631]	25 to 50	76 to 100	76 to 100	–	–
O=C(c1csc2c(O)nc(-c3ccccn3)nc12)N1CCNC(c2ccc(O)cc2)C1 (centres unmarked) [drawing 3697]	76 to 100	–	–	–	51 to 75
CN(C)Cc1ccc(-c2csc3c(O)nc(-c4ccccn4)nc23)cc1F [drawing 3717]	76 to 100	–	–	–	76 to 100
COCc1ccc(-c2csc3c(O)nc(-c4ccccn4)nc23)cc1F [drawing 3718]	51 to 75	76 to 100	–	–	51 to 75
Oc1nc(-c2ccccn2)nc2c(-c3ccc4c(c3)CCCO4)csc12 [drawing 3774]	25 to 50	–	25 to 50	–	51 to 75
Oc1nc(-c2ccccn2)nc2c(-c3cc(C(F)(F)F)ccc3F)csc12 [drawing 3783]	1 to 25	–	25 to 50	–	–
Oc1nc(-c2ccccn2)nc2c(-c3cncc(C(F)(F)F)c3)csc12 [drawing 3784]	1 to 25	25 to 50	–	–	–
CCC(C)c1csc2c(OC)nc(-c3ccccn3)nc12 (centres unmarked) [drawing 3790]	51 to 75	51 to 75	–	–	25 to 50
Cc1c(C(=O)N2CCN(c3ccccc3)CC2)sc2c(O)nc(-c3ccccn3)nc12 [drawing 3802]	51 to 75	–	51 to 75	–	–
Oc1nc(-c2ccccn2)nc2c(C3CC3)csc12 [drawing 3836]	25 to 50	–	51 to 75	–	51 to 75
COCCNc1nc(-c2nccn2C)nc2sc(-c3ccccc3)c(-c3ccccc3)c12 [drawing 3853]	51 to 75	–	–	–	76 to 100
